Data set [1] deals with Bacillus cereus (ATCC11778). The experiment in a line: Kirby-Bauer disc diffusion susceptibility test. The settings on record: ATCC11778, 6 mm disc impregnated with 5 μg, 20 hours, 35° C., read-out: Diffusion distance (zone diameter). It counts as cell-based. On the procedure: (§1) Bioactivity was assessed using the Kirby-Bauer disc diffusion susceptibility test. Oxoid Blank Discs were impregnated with the desired test substance. A 0.5 McFarland standard inoculum was prepared by adding 3-5 single colonies to 10 mL MH broth in a 15 mL falcon tube and standardised to 0.5 McFarland standard. The inoculum was used within 10 minutes. A sterile cotton swab was dipped in the inoculum, gently pressed against the side of the tube to remove excess liquid, and generously streaked on MH agar plate to fully cover the plate. The impregnated disc was carefully placed on the agar. The plate was incubated at 35° C. for 20 hrs overnight. A digital calliper was used to measure the zone diameter. The recorded zone diameter is an average of three zone diameters measured of one zone.
(§2) Each 6 mm disc was impregnated with 5 μg of the relevant compound (TM, A, B, C, D, or any of E1 to E7), and the diffusion zone recorded after 20 hours.
(§3) Results are shown for E2 to E7 and TM. Values quoted are zone diameters, with larger numbers indicating higher antibacterial activity.
(A growth-free zone around the sample is the usual read-out of agar diffusion tests.)

Data set [2] deals with Bacillus subtilis (EC1524). The experiment in a line: Kirby-Bauer disc diffusion susceptibility test. Type of data set: cell-based. The settings on record: 6 mm disc impregnated with 5 μg, 20 hours, 35° C., read-out: Diffusion distance (zone diameter). On the procedure: as §1, §2, §3
The subject of data set [3] is Bacillus subtilis (EC1524). The experiment in a line: microbe, parasite or virus in culture. It counts as cell-based.
The test system of data set [4] is Bacillus cereus (ATCC11778). The experiment in a line: microbe, parasite or virus in culture. It counts as cell-based.
The test system of data set [5] is Pseudomonas aeruginosa (ATCC27853). The data set can be described thus: Kirby-Bauer disc diffusion susceptibility test. Type of data set: cell-based. The settings on record: 6 mm disc, 5 μg. On the procedure: as §1, §2
Underlying scaffolds A, B, C and D and lipid-varied analogues E1 to E7 were assayed for potency against Pseudomonas aeruginosa (ATCC27853), according to the methods of Example 2. Results of the Kirby-Bauer disc diffusion susceptibility test conducted using Pseudomonas aeruginosa (ATCC27853) as a test organism are shown in FIG. 2 and in Table 3. MIC, MBC and IC50 values were also obtained as in Example 2.

The test system is the same in data set [6]. The experiment in a line: microbe, parasite or virus in culture. It counts as cell-based.
The test system of another data set is HEK293 kidney cells. The experiment in a line: Cell proliferation assay / cell morphology (cytotoxicity). The settings on record: HEK293. Type of data set: cell-based, human. On the procedure:
(§4) Underlying scaffolds A, B, C and D and lipid-varied analogues E1 to E7 were assayed for cytotoxicity towards human liver cells (Hep2G) and human kidney cells (HEK293).
(§5) Mammalian cells were cultured in DMEM medium supplemented with 10% heat inactivated fetal bovine serum (FBS, v/v). The cultures were maintained in a humidified incubator at 37° C. in 5% CO2/95% air. FBS was reduced to 2% for the cell proliferation assay.
(§6) In sterile 96-well plate, each well was seeded with 1×10^5 cells. The cells were then grown confluent overnight in 100 μL DMEM with 10% FBS. The medium was replenished with DMEM with 2% FBS and added vehicle control or test substance the next day. For test substance in methanol, stock was added to 25 μL of DMEM with 2% FBS or PBS and placed in a laminar flow hood to let the methanol evaporate (about 1-3 hrs). Once the methanol has evaporated, DMEM with 2% FBS was added to final volume of 100 μL of desired test concentration. […] Cells were grown for additional 24 hrs. The cell viability was determined by using a Promega CellTiter 96 AQueous One Solution Cell Proliferation Assay System following the manufacturer's protocol.

Another data set deals with HepG2 liver cells. Described as above. The settings on record: HepG2. Type of data set: cell-based, human. On the procedure:
as §4, §5, §6

Data set [7] in a line: Single-dose PK study, intraperitoneal injection. The settings on record: mice. Type of data set: in vivo. On the procedure:
The initial dose was 30 mg/kg. The x-axis indicates the time in hours after the initial injection and the y-axis indicates the blood plasma concentration of TM-8 in μg/mL in the mice.
A single-dose PK study was done using 16 mice at a dose of 30 mg/kg for the TM-8 analogue, di-N-octanoyl-tunicamycin. […] This study confirmed that the formulation was suitable for injections, and the drug is stable enough in physiological conditions.

Structures are written as SMILES. Converted amounts (≈) assume the structure as drawn. Some results are limits rather than exact numbers.

On to `CCCCCCCC(=O)NC1C(OC2OC(C[C@@H](O)[C@H]3O[C@@H](n4ccc(=O)[nH]c4=O)[C@H](O)[C@@H]3O)C(O)C(O)[C@H]2NC(=O)CCCCCCC)OC(CO)[C@@H](O)C1O` (stereo partly shown) [Compound E3, Di-N-octanoyl-tunicamycin], for which the zone of inhibition at 5 µg/disc stood at 12 mm in data set [1] and 16 mm in [2]. The MIC in data set [3] (MH broth, 35° C., 20-24 hours) is 0.78 µg/mL (≈ 0.952 µM); in [4] (MH broth, 35° C., 20-24 hours), 6.25 µg/mL (≈ 7.63 µM); in [6] it was 100 µg/mL (≈ 122 µM). Besides, the IC50 in data set [3] (OD600 dose-response curve) was 0.201 µg/mL (≈ 0.246 µM); in data set [4] (OD600 dose-response curve), 0.782 µg/mL (≈ 0.955 µM); in [6] it was 46.5 µg/mL (≈ 56.8 µM). The MBC in data set [3] (additional 20 hours on MH agar) is more than 0.98 µg/mL; in [4] (additional 20 hours on MH agar) it was 50 µg/mL (≈ 61.1 µM); in data set [6], more than 400 µg/mL. The compound further gave a Diffusion distance in data set [5] of 9 mm. Further, the Minimum lethal dose in the data set with HEK293 kidney cells and in the data set with HepG2 liver cells was more than 400 µg/mL each time. Moreover, in data set [7] (6 hours after intraperitoneal injection, 30 mg/kg), the “Detectability in blood plasma” value is recorded as “easily detectable”. Moreover, the “Stability in physiological conditions” value in data set [7] (30 mg/kg intraperitoneal) was “stable enough”.

Broadly, the IC50 is the concentration that gives 50% inhibition. Read a low IC50 as greater potency.

For the origin of these results see patent publication US10954262B2, “Tunicamycin analogues” (Oxford University Innovation Limited, priority 2017, dated 2021).
